Source: patent publication US20200190135A1, “LASSO STRUCTURES AND THEIR SYNTHESIS” (ChromaCon AG, priority 2016, published 2020)
Each block holds one compound with its values, some of them ahead of it. Numbered stars: 1 amine (or outer) side, 2 acyl side, 3 side chain; on linkers, the order of the positions; unused ones are H or OH. Square brackets hold non-standard residues; d marks the D form. Peptide text beside a SMILES is read from it. * marks the point of attachment. ξ: configuration not given here. X1 = O=C(NCCOCCN(CC(=O)[*:2])[*:1])c1ccc(F)cc1; X2 = c1cc2c(cc1CCN*)OCCOCCOCCOCCOCCOCCO2; Thr(3ξ) = CC(O)[C@H](N)C(=O)O; GABA = NCCCC(=O)O; Cam = NC(=O)C*

Tests used:
Format in all cases: in vitro ADME
trypsin = assay: Proteolytic stability, incubation with trypsin; details: incubation for 24 h with trypsin (FIG. 13)
Procedure: (§1) Proteolytic stability of lasso compounds L1, L2, and L3 in comparison to their branched macrocyclic compounds B1, B2, and B3 and the cyclic peptide analogue C1 (see FIG. 11) was tested in separate experiments by incubation for 24 h with chymotrypsin (FIG. 12), trypsin (FIG. 13) and proteinase K (FIG. 14).

proteinase K = proteinase K (Parengyodontium album, UniProt P06873); assay: Proteolytic stability, incubation with proteinase K; details: incubation for 24 h with proteinase K (FIG. 14)
proteinase K, sequence (P06873 106-384): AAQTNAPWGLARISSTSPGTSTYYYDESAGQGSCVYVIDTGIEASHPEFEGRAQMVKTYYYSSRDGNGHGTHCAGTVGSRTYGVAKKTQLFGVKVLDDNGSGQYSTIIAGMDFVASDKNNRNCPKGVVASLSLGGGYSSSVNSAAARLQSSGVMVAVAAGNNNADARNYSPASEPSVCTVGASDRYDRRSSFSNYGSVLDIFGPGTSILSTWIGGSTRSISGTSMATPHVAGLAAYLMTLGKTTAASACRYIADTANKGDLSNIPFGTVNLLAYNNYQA
Procedure: as §1

[1] = Serum stability, incubation with human serum; details: incubation for 24 h with human serum (FIG. 16)
Procedure: Serum stability of compounds L1, L2, and L3 in comparison to their branched macrocyclic compounds B1, B2, and B3, the cyclic peptide C1, and the linear C- and N-terminally unmasked derivative R1 (see FIG. 15) was tested by incubation for 24 h with human serum (FIG. 16).

SMILES: CC(C)C[C@@H]1NC(=O)[C@H](C(C)O)NC(=O)[C@H](CCCCN)NC(=O)[C@@H](Cc2c[nH]c3ccccc23)NC(=O)[C@H](Cc2ccccc2)NC(=O)[C@H](CSCC(N)=O)NC(=O)CNC(=O)[C@H](Cc2ccccc2)NC(=O)CCCNC1=O (stereo partly shown) [C1] (cyclo(C(Cam)F[dW]K[Thr(3ξ)]L[GABA]FG))
stability versus trypsin degradation (trypsin): similarly stable as L1-L3
stability versus proteinase K degradation (proteinase K): similarly stable as L1-L3

remaining at 24 h ([1]; read-out: remaining compound at the final time point): ~70%
SMILES: CC(C)C[C@H](NC(=O)[C@@H](NC(=O)[C@H](CCCCN)NC(=O)[C@@H](Cc1c[nH]c2ccccc12)NC(=O)[C@H](Cc1ccccc1)NC(=O)[C@H](CSCC(N)=O)NC(=O)CNC(=O)[C@H](Cc1ccccc1)NC(=O)CNCCOCCNC(=O)c1ccc(F)cc1)[C@@H](C)O)C(=O)NCCCC(=O)NCCc1ccc2c(c1)OCCOCCOCCOCCOCCOCCO2 [L1] (H-[X1]FGC(Cam)F[dW]KTL[GABA]-X2)

degradation in human serum (in words) [1]: degraded rapidly and completely
SMILES: CC(C)C[C@H](NC(=O)[C@@H](NC(=O)[C@H](CCCCN)NC(=O)[C@@H](Cc1c[nH]c2ccccc12)NC(=O)[C@H](Cc1ccccc1)NC(=O)[C@H](CSCC(N)=O)NC(=O)CNC(=O)[C@@H](N)Cc1ccccc1)[C@@H](C)O)C(=O)O [R1] (H-FGC(Cam)F[dW]KTL-OH)
